In ChEMBL document CHEMBL3045736, “Cobalt mediated ring contraction reaction of lapachol and initial antibacterial evaluation of naphthoquinones derived from lapachol” (2012) one finds MIC and MBC data, which are given here for eleven molecules.

≈ marks a conversion by molar mass, not a printed value. Some results are limits rather than exact numbers.

Common to all, as to format: functional
The test system of one assay is Staphylococcus aureus. Nature of the assay: Antibacterial activity against Staphylococcus aureus after 24 hr by p-iodonitrotetrazolium assay.
The subject of the next assay is Bacillus cereus. Briefly: Antibacterial activity against Bacillus cereus after 24 hr by p-iodonitrotetrazolium assay.
The test system of a further assay is Escherichia coli. Nature of the assay: Antibacterial activity against Escherichia coli after 24 hr by p-iodonitrotetrazolium assay.
Assay [1] relates to Mycobacterium tuberculosis. Briefly: Antimycobacterial activity against Mycobacterium tuberculosis by Bactec TB-460 assay.

Consider `CC(=O)OC=CC1=C(O)C(=O)c2ccccc2C1=O`, for which the MIC with Staphylococcus aureus, with Bacillus cereus and in the assay with Escherichia coli was over 78.1 µg/mL in each case.

For the molecule `CC(C)=CCC1(O)C(=O)c2ccccc2C1=O`, the MIC against Staphylococcus aureus was 240 µM; in the assay with Bacillus cereus, over 78.1 µg/mL; in assay [1], 120 µM (≈ 27.6 µg/mL); with Escherichia coli, over 78.1 µg/mL. In assay [1], this molecule came in with an MBC of 240 µM (≈ 55.2 µg/mL).

Regarding `CC(C)(O[N+](=O)[O-])C1CC2=C(O1)C(=O)c1ccccc1C2=O` (stereo not drawn), the minimal inhibitory concentration (MIC) was 272 µM against Staphylococcus aureus, over 78.1 µg/mL in the assay with Bacillus cereus, 34 µM (≈ 10.3 µg/mL) in assay [1] and over 78.1 µg/mL in the assay with Escherichia coli. For the same molecule, the MBC in assay [1] amounted to 136 µM (≈ 41.3 µg/mL).

Consider `C=C(C)c1cc2c(o1)C(=O)c1ccccc1C2=O`, for which the MIC against Staphylococcus aureus was 328 µM; in the assay with Bacillus cereus it was over 78.1 µg/mL; in assay [1] it was 41 µM (≈ 9.77 µg/mL); in the assay on Escherichia coli, 328 µM. The molecule also displayed an MBC in assay [1] of 164 µM (≈ 39.1 µg/mL).

On to `O=CCC1=C(O)C(=O)c2ccccc2C1=O`, for which the MIC against Staphylococcus aureus is over 78.1 µg/mL; with Bacillus cereus it was over 78.1 µg/mL; in assay [1] it was 362 µM (≈ 78.2 µg/mL); in the assay with Escherichia coli, over 78.1 µg/mL. In addition, the MBC in assay [1] was 723 µM (≈ 156 µg/mL).

Regarding `C=C(C)C1CC2=C(O1)C(=O)c1ccccc1C2=O` (stereo not drawn) [DEHYDROISO-ALPHA-LAPACHONE], the MIC was 326 µM against Staphylococcus aureus, over 78.1 µg/mL against Bacillus cereus, 40.7 µM (≈ 9.77 µg/mL) in assay [1] and over 78.1 µg/mL against Escherichia coli. The same molecule returned an MBC in assay [1] of 81.4 µM (≈ 19.6 µg/mL).

In assay [1], `NNC(=O)c1ccncc1` [ISONIAZID] showed an MBC of 1.75 µM (≈ 0.24 µg/mL) and an MIC of 0.88 µM (≈ 0.121 µg/mL).

For the molecule `CC(C)=CCC1=C(O)C(=O)c2ccccc2C1=O` [LAPACHOL], the MIC in the assay on Staphylococcus aureus is over 78.1 µg/mL; in the assay on Bacillus cereus it was over 78.1 µg/mL; in assay [1] it was 161 µM (≈ 39.1 µg/mL); against Escherichia coli, over 78.1 µg/mL. Besides, the MBC in assay [1] turned out to be 646 µM (≈ 156 µg/mL).

Consider `CC1(C)CCC2=C(O1)c1ccccc1C(=O)C2=O` [LAPACHONE], for which the MIC was found to be 161 µM against Staphylococcus aureus, 161 µM against Bacillus cereus, 20.2 µM (≈ 4.89 µg/mL) in assay [1] and 161 µM in the assay on Escherichia coli. Further, the MBC in assay [1] was 80.7 µM (≈ 19.6 µg/mL).

In the case of `CC(=O)c1cc2c(o1)C(=O)c1ccccc1C2=O` [NAPABUCASIN], the MIC is 326 µM in the assay on Staphylococcus aureus, over 78.1 µg/mL against Bacillus cereus, 40.7 µM (≈ 9.77 µg/mL) in assay [1] and over 78.1 µg/mL against Escherichia coli. In assay [1], this molecule returned an MBC of 163 µM (≈ 39.1 µg/mL).

Turning to GENTAMICIN, the MIC against Staphylococcus aureus was 7.2 µM; in the assay on Bacillus cereus, 3.6 µM; with Escherichia coli it was 3.6 µM.
